# Experimental data from patent publication US6638973B2, “Taxane formulations” (FSU Research Foundation, Inc., priority 2000, dated 2003).
# Test system: HCT116 cells
# Assay: In vitro cytotoxicity measured by the cell colony formation assay
# Type: cell-based
# Conditions: HCT116 cells, 72 h drug incubation, colonies counted after 7 days; ID50 = drug concentration producing 50% inhibition of colony formation; read-out: IN VITRO ID 50 (nm) HCT116
# How it was run: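 Colony-forming survival was scored 7 days after a 72 h, 37 °C compound exposure followed by washout into fresh medium.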
row,SMILES,IC50 [nM]
1,CCC(C)(C)OC(=O)N[C@@H](c1ccco1)[C@@H](O)C(=O)O[C@H]1C[C@@]2(O)[C@@H](OC(=O)c3ccccc3)C3[C@](C)(C(=O)[C@H](O)C(=C1C)C2(C)C)[C@@H](OC(=O)Nc1ccc(F)c(F)c1)C[C@H]1OC[C@@]31OC(C)=O (stereo partly drawn) [Compound 6404],< 10
2,CC(=O)O[C@@]12CO[C@@H]1C[C@H](OC(=O)NC(C)(C)C)[C@@]1(C)C(=O)[C@H](O)C3=C(C)[C@@H](OC(=O)[C@H](O)[C@@H](NC(=O)OC(C)(C)C)c4ccco4)C[C@@](O)([C@@H](OC(=O)c4ccccc4)C12)C3(C)C (stereo partly drawn) [Compound 5454],< 10

# Same assay, conditions: HCT116 cells, 72 h incubation with drug, colonies counted after 7 days; ID50 = drug concentration producing 50% inhibition of colony formation; read-out: IN VITRO ID 50 (nm) HCT116
row,SMILES,IC50 [nM]
1,CCOC(=O)O[C@H]1C(=O)[C@@]2(C)C([C@H](OC(=O)c3ccccc3)[C@]3(O)C[C@H](OC(=O)[C@H](O)[C@@H](NC(=O)C=C(C)C)c4cccs4)C(C)=C1C3(C)C)[C@]1(OC(C)=O)CO[C@@H]1C[C@@H]2O (stereo partly drawn) [Compound 4374],< 1
2,CCOC(=O)O[C@H]1C[C@H]2OC[C@@]2(OC(C)=O)C2[C@H](OC(=O)c3ccccc3)[C@]3(O)C[C@H](OC(=O)[C@H](O)[C@@H](NC(=O)OCC(C)C)c4ccsc4)C(C)=C([C@@H](O)C(=O)[C@@]21C)C3(C)C (stereo partly drawn) [Compound 4979],< 10
3,CCOC(=O)O[C@H]1C(=O)[C@@]2(C)C([C@H](OC(=O)c3ccccc3)[C@]3(O)C[C@H](OC(=O)[C@H](O)[C@@H](NC(=O)OC(C)(C)C)c4cccnc4)C(C)=C1C3(C)C)[C@]1(OC(C)=O)CO[C@@H]1C[C@@H]2O (stereo partly drawn) [Compound 1808],< 10
4,CCOC(=O)O[C@H]1C(=O)[C@@]2(C)C([C@H](OC(=O)c3ccccc3)[C@]3(O)C[C@H](OC(=O)[C@H](O)[C@@H](NC(=O)OCC(C)C)c4ccco4)C(C)=C1C3(C)C)[C@]1(OC(C)=O)CO[C@@H]1C[C@@H]2O (stereo partly drawn) [Compound 3181],< 1
5,CCOC(=O)O[C@H]1C[C@H]2OC[C@@]2(OC(C)=O)C2[C@H](OC(=O)c3ccccc3)[C@]3(O)C[C@H](OC(=O)[C@H](O)[C@@H](NC(=O)OCC(C)C)C4CC4)C(C)=C([C@@H](O)C(=O)[C@@]21C)C3(C)C (stereo partly drawn) [Compound 5225],< 10
6,CC=CC(=O)NC(c1ccco1)C(O)C(=O)OC1CC2(O)C(OC(=O)c3ccccc3)C3C4(OC(C)=O)COC4CC(O)C3(C)C(=O)C(OC(=O)OCC)C(=C1C)C2(C)C (stereo not drawn) [Compound 4000],< 1
7,CCOC(=O)OC1C(=O)C2(C)C(O)CC3OCC3(OC(C)=O)C2C(OC(=O)c2ccccc2)C2(O)CC(OC(=O)C(O)C(NC(=O)OC(C)(C)C)c3cccs3)C(C)=C1C2(C)C (stereo not drawn) [Compound 1755],< 1
8,COC(=O)O[C@H]1C(=O)[C@@]2(C)C([C@H](OC(=O)c3ccccc3)[C@]3(O)C[C@H](OC(=O)[C@H](O)[C@@H](NC(=O)OC(C)(C)C)c4ccoc4)C(C)=C1C3(C)C)[C@]1(OC(C)=O)CO[C@@H]1C[C@@H]2O (stereo partly drawn) [Compound 2032],< 1
9,CCOC(=O)O[C@H]1C[C@H]2OC[C@@]2(OC(C)=O)C2[C@H](OC(=O)c3ccccc3)[C@]3(O)C[C@H](OC(=O)[C@H](O)[C@@H](NC(=O)OCC(C)C)c4cccs4)C(C)=C([C@@H](O)C(=O)[C@@]21C)C3(C)C (stereo partly drawn) [Compound 4363],< 10
10,CCC(C)(C)OC(=O)N[C@@H](c1ccco1)[C@@H](O)C(=O)O[C@H]1C[C@@]2(O)[C@@H](OC(=O)c3ccccc3)C3[C@](C)(C(=O)[C@H](O)C(=C1C)C2(C)C)[C@@H](OC(=O)OCc1ccccc1)C[C@H]1OC[C@@]31OC(C)=O (stereo partly drawn) [Compound 6246],< 1
11,CCOC(=O)O[C@H]1C(=O)[C@@]2(C)C([C@H](OC(=O)c3ccccc3)[C@]3(O)C[C@H](OC(=O)[C@H](O)[C@@H](NC(=O)OC(C)(C)C)c4ccc([N+](=O)[O-])cc4)C(C)=C1C3(C)C)[C@]1(OC(C)=O)CO[C@@H]1C[C@@H]2O (stereo partly drawn) [Compound 1866],< 1
12,CC=CC(=O)NC(c1ccoc1)C(O)C(=O)OC1CC2(O)C(OC(=O)c3ccccc3)C3C4(OC(C)=O)COC4CC(O)C3(C)C(=O)C(OC(=O)OCC)C(=C1C)C2(C)C (stereo not drawn) [Compound 4959],< 1

# Same assay, conditions: HCT116 cells, colony formation, 72 h incubation with drug, colonies counted after 7 days; ID50 = drug concentration producing 50% inhibition of colony formation; read-out: IN VITRO ID 50 (nm) HCT116
row,SMILES,IC50 [nM]
1,CCNC(=O)O[C@H]1C(=O)[C@@]2(C)C([C@H](OC(=O)c3ccccc3)[C@]3(O)C[C@H](OC(=O)[C@H](O)[C@@H](NC(=O)OC(C)(C)C)c4ccccc4)C(C)=C1C3(C)C)[C@]1(OC(C)=O)CO[C@@H]1C[C@@H]2O (stereo partly drawn) [Compound 2640],< 1
2,CCNC(=O)O[C@H]1C(=O)[C@@]2(C)C([C@H](OC(=O)c3ccccc3)[C@]3(O)C[C@H](OC(=O)[C@H](O)[C@@H](NC(=O)OC(C)(C)C)C4CC4)C(C)=C1C3(C)C)[C@]1(OC(C)=O)CO[C@@H]1C[C@@H]2O (stereo partly drawn) [Compound 2757],< 1

# Same assay, conditions: HCT116 colony formation; 72 h drug incubation, colonies counted after 7 days; Example 5, C-7 ester/C-10 hydroxy taxanes; read-out: IN VITRO ID 50 (nm) HCT116
row,SMILES,IC50 [nM]
1,CC(=O)O[C@@]12CO[C@@H]1C[C@H](OC(=O)C(C)C)[C@@]1(C)C(=O)[C@H](O)C3=C(C)[C@@H](OC(=O)[C@H](O)[C@@H](NC(=O)OC(C)(C)C)c4cccs4)C[C@@](O)([C@@H](OC(=O)c4ccccc4)C12)C3(C)C (stereo partly drawn) [Compound 6333],< 1
2,CCCC(=O)O[C@H]1C[C@H]2OC[C@@]2(OC(C)=O)C2[C@H](OC(=O)c3ccccc3)[C@]3(O)C[C@H](OC(=O)[C@H](O)[C@@H](NC(=O)OC(C)(C)C)c4cccs4)C(C)=C([C@@H](O)C(=O)[C@@]21C)C3(C)C (stereo partly drawn) [Compound 4256],< 1
3,CCCC(=O)O[C@H]1C[C@H]2OC[C@@]2(OC(C)=O)C2[C@H](OC(=O)c3ccccc3)[C@]3(O)C[C@H](OC(=O)[C@H](O)[C@@H](NC(=O)OC(C)C)c4cccs4)C(C)=C([C@@H](O)C(=O)[C@@]21C)C3(C)C (stereo partly drawn) [Compound 4135],< 1

# Same assay, conditions: HCT116 colony formation; 72 h drug incubation, colonies counted after 7 days; Example 10, C-10 ester/C-7 hydroxy taxanes; read-out: IN VITRO ID 50 (nm) HCT116
row,SMILES,IC50 [nM]
1,CC(=O)O[C@@]12CO[C@@H]1C[C@H](O)[C@@]1(C)C(=O)[C@H](OC(=O)C=C(C)C)C3=C(C)[C@@H](OC(=O)[C@H](O)[C@@H](NC(=O)OC(C)(C)C)c4ccco4)C[C@@](O)([C@@H](OC(=O)c4ccccc4)C12)C3(C)C (stereo partly drawn) [Compound 2488],< 1
2,CC(=O)O[C@@]12CO[C@@H]1C[C@H](O)[C@@]1(C)C(=O)[C@H](OC(=O)C3CC3)C3=C(C)[C@@H](OC(=O)[C@H](O)[C@@H](NC(=O)c4ccccc4)c4ccco4)C[C@@](O)([C@@H](OC(=O)c4ccccc4)C12)C3(C)C (stereo partly drawn) [Compound 0908],< 1
3,CC(=O)O[C@@]12CO[C@@H]1C[C@H](O)[C@@]1(C)C(=O)[C@H](OC(=O)C3CC3)C3=C(C)[C@@H](OC(=O)[C@H](O)[C@@H](NC(=O)c4ccccc4)C4CC4)C[C@@](O)([C@@H](OC(=O)c4ccccc4)C12)C3(C)C (stereo partly drawn) [Compound 0923],< 1
4,CC(=O)OC12COC1CC(O)C1(C)C(=O)C(OC(=O)c3cccs3)C3=C(C)C(OC(=O)C(O)C(NC(=O)OC(C)(C)C)c4ccsc4)CC(O)(C(OC(=O)c4ccccc4)C21)C3(C)C (stereo not drawn) [Compound 1939],< 1
5,CCC(=O)O[C@H]1C(=O)[C@@]2(C)C([C@H](OC(=O)c3ccccc3)[C@]3(O)C[C@H](OC(=O)[C@H](O)[C@@H](NC(=O)OC(C)(C)C)c4ccccn4)C(C)=C1C3(C)C)[C@]1(OC(C)=O)CO[C@@H]1C[C@@H]2O (stereo partly drawn) [Compound 0503],< 1
6,CC(=O)OC12COC1CC(O)C1(C)C(=O)C(OC(=O)c3ccco3)C3=C(C)C(OC(=O)C(O)C(NC(=O)OC(C)(C)C)c4ccc([N+](=O)[O-])cc4)CC(O)(C(OC(=O)c4ccccc4)C21)C3(C)C (stereo not drawn) [Compound 2202],< 1
7,CCC(=O)O[C@H]1C(=O)[C@@]2(C)C([C@H](OC(=O)c3ccccc3)[C@]3(O)C[C@H](OC(=O)[C@H](O)[C@@H](NC(=O)c4ccccc4)C4CCC4)C(C)=C1C3(C)C)[C@]1(OC(C)=O)CO[C@@H]1C[C@@H]2O (stereo partly drawn) [Compound 0720],< 10
8,CC(=O)OC12COC1CC(O)C1(C)C(=O)C(OC(=O)c3ccco3)C3=C(C)C(OC(=O)C(O)C(NC(=O)OC(C)(C)C)c4ccoc4)CC(O)(C(OC(=O)c4ccccc4)C21)C3(C)C (stereo not drawn) [Compound 2159],< 1
9,CCC(=O)O[C@H]1C(=O)[C@@]2(C)C([C@H](OC(=O)c3ccccc3)[C@]3(O)C[C@H](OC(=O)[C@H](O)[C@@H](NC(=O)OC(C)(C)C)c4ccsc4)C(C)=C1C3(C)C)[C@]1(OC(C)=O)CO[C@@H]1C[C@@H]2O (stereo partly drawn) [Compound 0562],< 1
10,C/C=C/C(=O)O[C@H]1C(=O)[C@@]2(C)C([C@H](OC(=O)c3ccccc3)[C@]3(O)C[C@H](OC(=O)[C@H](O)[C@@H](NC(=O)OC(C)(C)C)c4ccsc4)C(C)=C1C3(C)C)[C@]1(OC(C)=O)CO[C@@H]1C[C@@H]2O (stereo partly drawn) [Compound 2408],< 1
11,CC(=O)O[C@@]12CO[C@@H]1C[C@H](O)[C@@]1(C)C(=O)[C@H](OC(=O)C=C(C)C)C3=C(C)[C@@H](OC(=O)[C@H](O)[C@@H](NC(=O)OC(C)(C)C)c4ccccn4)C[C@@](O)([C@@H](OC(=O)c4ccccc4)C12)C3(C)C (stereo partly drawn) [Compound 2464],< 1
12,CCC(=O)O[C@H]1C(=O)[C@@]2(C)C([C@H](OC(=O)c3ccccc3)[C@]3(O)C[C@H](OC(=O)[C@H](O)[C@H](C=C(C)C)NC(=O)OC(C)(C)C)C(C)=C1C3(C)C)[C@]1(OC(C)=O)CO[C@@H]1C[C@@H]2O (stereo partly drawn) [Compound 0499],< 1
13,CC(=O)O[C@@]12CO[C@@H]1C[C@H](O)[C@@]1(C)C(=O)[C@H](OC(=O)C3CC3)C3=C(C)[C@@H](OC(=O)[C@H](O)[C@@H](NC(=O)OC(C)(C)C)c4ccncc4)C[C@@](O)([C@@H](OC(=O)c4ccccc4)C12)C3(C)C (stereo partly drawn) [Compound 2813],< 1

# Same assay, conditions: HCT116 colony formation; 72 h drug incubation, colonies counted after 7 days; Example 20, C-10 substituted acetate/C-7 hydroxy taxanes; read-out: IN VITRO ID 50 (nm) HCT116
row,SMILES,IC50 [nM]
1,C/C=C/C(=O)N[C@@H](c1ccco1)[C@@H](O)C(=O)O[C@H]1C[C@@]2(O)[C@@H](OC(=O)c3ccccc3)C3[C@](C)(C(=O)[C@H](OC(=O)COc4ccccc4)C(=C1C)C2(C)C)[C@@H](O)C[C@H]1OC[C@@]31OC(C)=O (stereo partly drawn) [Compound 6111],< 1
